Assay results as given in the NIST ThermoML archive (doi:10.1021/je800110r).

Details: 303.16 K, Liquid, Vibrating tube method

CCCCCCCCCC [decane]
Details	mass density [kg/m3]
20929 kPa	738
20946 kPa	738.2
20968 kPa	738.1
20994 kPa	738
21014 kPa	738.1
21034 kPa	738.1
21060 kPa	738.2
21084 kPa	738.1
21107 kPa	738.2
21124 kPa	738.2
21151 kPa	738.1
21174 kPa	738.2
21191 kPa	738.2
21209 kPa	738.2
21226 kPa	738.3
21243 kPa	738.2
21267 kPa	738.4
21293 kPa	738.3
21314 kPa	738.3
21341 kPa	738.3
21358 kPa	738.4
21382 kPa	738.3
21403 kPa	738.3
21424 kPa	738.5
21448 kPa	738.4
21469 kPa	738.5
21490 kPa	738.4
21514 kPa	738.4
21538 kPa	738.4
21560 kPa	738.6
21579 kPa	738.5
21600 kPa	738.5
21622 kPa	738.5
21641 kPa	738.5
21662 kPa	738.6
21686 kPa	738.6
21708 kPa	738.7
21730 kPa	738.6
21745 kPa	738.7
21779 kPa	738.7
21805 kPa	738.6
21827 kPa	738.7
21847 kPa	738.7
21869 kPa	738.6
21891 kPa	738.7
21916 kPa	738.7
21938 kPa	738.8
21962 kPa	738.8
21987 kPa	738.7
22006 kPa	738.8
22029 kPa	738.9
22057 kPa	738.8
22086 kPa	738.8
22108 kPa	738.7
22127 kPa	738.9
22153 kPa	738.8
22178 kPa	738.9
22201 kPa	738.8
22224 kPa	739
22246 kPa	738.9
22269 kPa	738.9
22291 kPa	739.1
22314 kPa	739
22333 kPa	738.9
22360 kPa	739
22380 kPa	739
22410 kPa	739
22436 kPa	739
22463 kPa	739.1
22489 kPa	739.1
22516 kPa	739
22542 kPa	739.1
22565 kPa	739.1
22589 kPa	739.2
22619 kPa	739.2
22647 kPa	739.2
22666 kPa	739.2
22696 kPa	739.3
22723 kPa	739.2
22750 kPa	739.3
22773 kPa	739.3
22801 kPa	739.4
22825 kPa	739.3
22846 kPa	739.3
22870 kPa	739.4
22897 kPa	739.3
22918 kPa	739.3
22950 kPa	739.5
22971 kPa	739.4
22996 kPa	739.5
23013 kPa	739.5
23041 kPa	739.4
23062 kPa	739.5
23097 kPa	739.5
23124 kPa	739.5
23149 kPa	739.6
23174 kPa	739.6
23202 kPa	739.6
23224 kPa	739.6
23257 kPa	739.7
23285 kPa	739.6
23310 kPa	739.6
23339 kPa	739.7
23360 kPa	739.7
23385 kPa	739.6
23411 kPa	739.7
23437 kPa	739.8
23466 kPa	739.7
23495 kPa	739.8
23526 kPa	739.7
23549 kPa	739.7
23575 kPa	739.9
23600 kPa	739.8
23630 kPa	739.9
23652 kPa	739.9
23682 kPa	739.9
23705 kPa	739.9
23735 kPa	739.9
23761 kPa	740
23784 kPa	739.9
23813 kPa	739.9
23845 kPa	740.1
23872 kPa	740
23902 kPa	740.1
23933 kPa	740.1
23968 kPa	740.1
23991 kPa	740.1
24021 kPa	740.2
24048 kPa	740.2
24083 kPa	740.1
24102 kPa	740.1
24133 kPa	740.2
24165 kPa	740.2
24200 kPa	740.3
24235 kPa	740.3
24255 kPa	740.2
24282 kPa	740.4
